In patent US9388112B2, “Bisphenol derivatives and their use as androgen receptor activity modulators” (The University of British Columbia, priority 2010, dated 2016):

The molecules below were run against T1, androgen receptor (AR) (Homo sapiens, UniProt P10275, T878A) (assay: LNCaP PSA (6.1 kb)-luciferase assay (R1881-induced)). Details: FIG. 7A, 1 μM to 35 μM.
T1 construct: LNCaP cells express endogenous AR; endogenous in cells; host or cells: LNCaP cells
T1 sequence (P10275 1-920 T878A): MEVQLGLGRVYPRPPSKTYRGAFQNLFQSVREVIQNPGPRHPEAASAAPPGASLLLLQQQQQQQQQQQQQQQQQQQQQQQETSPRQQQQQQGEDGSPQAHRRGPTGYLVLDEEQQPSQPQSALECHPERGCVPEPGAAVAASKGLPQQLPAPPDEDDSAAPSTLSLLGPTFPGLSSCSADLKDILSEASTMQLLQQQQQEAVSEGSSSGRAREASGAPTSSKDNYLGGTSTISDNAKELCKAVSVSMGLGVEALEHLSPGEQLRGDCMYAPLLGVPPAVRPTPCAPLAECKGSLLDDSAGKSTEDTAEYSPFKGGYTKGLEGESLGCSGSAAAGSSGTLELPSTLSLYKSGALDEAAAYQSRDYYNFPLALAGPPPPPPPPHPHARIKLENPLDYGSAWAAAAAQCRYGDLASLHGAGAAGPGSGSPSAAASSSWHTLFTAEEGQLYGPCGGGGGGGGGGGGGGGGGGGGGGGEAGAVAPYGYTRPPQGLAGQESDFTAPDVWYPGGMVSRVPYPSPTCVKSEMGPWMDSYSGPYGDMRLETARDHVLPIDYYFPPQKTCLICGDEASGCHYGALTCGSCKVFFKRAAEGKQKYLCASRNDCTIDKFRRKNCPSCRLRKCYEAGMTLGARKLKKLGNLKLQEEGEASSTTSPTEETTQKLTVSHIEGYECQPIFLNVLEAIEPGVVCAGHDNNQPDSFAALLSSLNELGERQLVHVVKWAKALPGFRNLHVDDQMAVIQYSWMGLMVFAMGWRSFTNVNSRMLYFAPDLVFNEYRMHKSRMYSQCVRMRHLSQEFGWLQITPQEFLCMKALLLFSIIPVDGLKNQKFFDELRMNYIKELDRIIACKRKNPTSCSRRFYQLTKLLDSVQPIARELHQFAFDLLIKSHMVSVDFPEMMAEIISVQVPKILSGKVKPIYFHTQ
Type: cell-based
Description: LNCaP cells were employed initially for all experiments because they are well-differentiated human prostate cancer cells in which ligand-independent activation of the AR by FSK has been characterized (Nazareth et al 1996 J. Biol. Chem. 271, 19900-19907; and Sadar 1999 J. Biol. Chem. 274, 7777-7783). LNCaP cells express endogenous AR and secrete prostate-specific antigen (PSA) (Horoszewicz et al 1983 Cancer Res. 43, 1809-1818). LNCaP cells can be grown either as monolayers in cell culture or as tumors in the well-characterized xenograft model that progresses to androgen independence in castrated hosts (Sato et al 1996 J. Steroid Biochem. Mol. Biol. 58, 139-146; Gleave et al 1991 Cancer Res. 51, 3753-3761; Sato et al 1997 Cancer Res. 57, 1584-1589; and Sadar et al 2002 Mol. Cancer Ther. 1(8), 629-637). […] Small molecules that specifically target the AR-NTD should have no effect on PC3 cells. This means that they should not alter the proliferation of PC3 cells if they specifically block the AR to mediate their inhibitory effects. R1881 was employed since it is stable and avoids problems associated with the labile physiological ligand dihydrotestosterone (DHT). Reporter specificity may be determined using several alternative reporter gene constructs. Some well characterized ARE-driven reporter gene constructs that have been used extensively are the PSA (6.1 kb) enhance/promoter which contains several AREs and is highly inducible by androgens as well as by FSK (Ueda et al 2002 A J. Biol. Chem. 277, 7076-7085) and the ARR3-thymidine kinase (tk)-luciferase, which is an artificial reporter construct that contains three tandem repeats of the rat probasin ARE1 and ARE2 regions upstream of a luciferase reporter (Snoek et al 1996 J. Steroid Biochem. Mol. Biol. 59, 243-250).
LNCaP cells were transiently cotransfected with PSA (6.1 kb)-luciferase (0.25 μg/well) in 24-well plates for 24 h prior to pre-treatment with compounds for 1 hour before the addition of synthetic androgen, R1881 (1 nM) to induce PSA production or vehicle. The total amount of plasmid DNA transfected was normalized to 0.75 μg/well by the addition of the empty vector. After 48 h of incubation with R1881, the cells were harvested, and relative luciferase activity was determined. Test compounds were added to the cells at various concentrations and activity for each treatment was normalized to the predicted maximal activity induction (in the absence of test compounds, vehicle only). Plotting of sigmoidal curves (Boltzmann Function) and IC50 calculations were done using OriginPro 8.1 Sofware (Northampton, Mass., USA).
Using the LNCaP PSA (6.1 kb)-luciferase assay described above, various compounds described herein were tested against DMSO and EPI-001 controls. In FIG. 1, a comparison is made between EPI-035 and DMSO and EPI-001 or EPI-026 from 1 μM to 10 μM. […] In FIGS. 3A and 3B, EPI-040 and EPI-051 are compared to DMSO and EPI-001 at 1 μM to 30 μM and 2.5 μM to 35 μM respectively. In FIGS. 4A and 4B, EPI-043 is compared to DMSO and EPI-001 at 5 μM to 35 μM 0.25 μM to 25 μM respectively.
Similarly, in FIG. 7B concentrations of EPI-6000, EPI-6001, EPI-6002, and EPI-6003 are shown at 12.5 μM and 25 μM as compared to the DMSO control.

Structure (SMILES)	dose response as compared to the DMSO control
OC(CCl)COc1ccccc1Cc1ccccc1OCC(O)CCl (stereo not drawn) [EPI-900]	showed a dose response

Same assay, conditions: LNCaP PSA (6.1 kb)-luciferase assay, versus DMSO and EPI-001 controls

Structure (SMILES)	androgen receptor modulating activity
CC(C)(c1ccc(OCCCCl)cc1)c1ccc(OCCCCl)cc1 [EPI-038]	showed androgen receptor modulating activity
C#CCOc1ccc(C(C)(C)c2ccc(OC[C@@H](O)CCl)cc2)cc1 [EPI-046]	showed androgen receptor modulating activity
CC(C)(c1ccc(OCCCCCCCl)cc1)c1ccc(OCCOCCOCCO)cc1 [EPI-043]	showed androgen receptor modulating activity
CC(C)(c1ccc(OCC(O)CCl)cc1)c1ccccc1OCC(O)CO (stereo not drawn) [EPI-6001]	showed androgen receptor modulating activity
C#CCOc1ccc(C(C)(C)c2ccc(OCC(O)CO)cc2)cc1 (stereo not drawn) [EPI-051]	showed androgen receptor modulating activity
CC(C)(c1ccc(OCC(O)CCl)cc1)c1ccccc1OCC(O)CO (stereo not drawn) [EPI-6002]	showed androgen receptor modulating activity
CC(C)(c1ccc(OCC(O)CCl)cc1)c1ccccc1OCC(O)CO (stereo not drawn) [EPI-6003]	showed androgen receptor modulating activity
CC(=O)OCCOc1ccc(C(C)(C)c2ccc(OCCCCl)cc2)cc1 [EPI-037]	showed androgen receptor modulating activity
C#CCOc1ccc(C(C)(C)c2ccc(OC[C@H](O)CCl)cc2)cc1 [EPI-047]	showed androgen receptor modulating activity
CC(C)(c1ccc(OCC(O)CCl)cc1)c1ccccc1OCC(O)CO (stereo not drawn) [EPI-6000]	showed androgen receptor modulating activity
CC(C)(c1ccc(O)cc1)c1ccc(OCCOCCOCCO)cc1 [EPI-040]	showed androgen receptor modulating activity
CC(C)(c1ccc(OCCO)cc1)c1ccc(OCCCCl)cc1 [EPI-035]	showed androgen receptor modulating activity
OC(CCl)COc1ccccc1Cc1ccccc1OCC(O)CCl (stereo not drawn) [EPI-900]	showed androgen receptor modulating activity

Same assay, conditions: LNCaP cells transfected with PSA (6.1 kb)-luciferase, 1 h pre-treatment, R1881 1 nM, 48 h

Structure (SMILES)	EXPERIMENTAL DATA (activity in the described assays)
C#CCOc1ccc(C(C)(C)c2ccc(OCC(O)CO)cc2)cc1 (centres unmarked) [drawing 877]	Active
OC(CCl)COc1ccccc1Cc1ccccc1OCC(O)CCl (centres unmarked) [drawing 878]	Active
CC(C)(c1ccc(OCCCCCCCl)cc1)c1ccc(OCCOCCOCCO)cc1 [drawing 874]	Active
CC(C)(c1ccc(OCCO)cc1)c1ccc(OCCCCl)cc1 [drawing 869]	Active
CC(C)(c1ccc(OCC(O)CCl)cc1)c1ccccc1OCC(O)CO (centres unmarked) [drawing 879]	Active
C#CCOc1ccc(C(C)(C)c2ccc(OC[C@H](O)CCl)cc2)cc1 [drawing 876]	Active
C#CCOc1ccc(C(C)(C)c2ccc(OC[C@@H](O)CCl)cc2)cc1 [drawing 875]	Active
CC(C)(c1ccc(OCCCCl)cc1)c1ccc(OCCCCl)cc1 [drawing 871]	Active
CC(=O)OCCOc1ccc(C(C)(C)c2ccc(OCCCCl)cc2)cc1 [drawing 870]	Active
